From patent US6579881B2 (Eisai Co., Ltd., priority 1997, dated 2003)
Where a name gives a salt, the structure may show the parent alone.

Experiments:
[1] = target: serotonin 2 receptor (Rattus norvegicus, UniProt P14842); experiment: Binding test on [3H] ketanserin (serotonin 2 receptor); details: [3H] ketanserin 0.3 nM, receptor fraction of rat cerebral cortex; read-out: 5HT2
serotonin 2 receptor, sequence (P14842 whole entry): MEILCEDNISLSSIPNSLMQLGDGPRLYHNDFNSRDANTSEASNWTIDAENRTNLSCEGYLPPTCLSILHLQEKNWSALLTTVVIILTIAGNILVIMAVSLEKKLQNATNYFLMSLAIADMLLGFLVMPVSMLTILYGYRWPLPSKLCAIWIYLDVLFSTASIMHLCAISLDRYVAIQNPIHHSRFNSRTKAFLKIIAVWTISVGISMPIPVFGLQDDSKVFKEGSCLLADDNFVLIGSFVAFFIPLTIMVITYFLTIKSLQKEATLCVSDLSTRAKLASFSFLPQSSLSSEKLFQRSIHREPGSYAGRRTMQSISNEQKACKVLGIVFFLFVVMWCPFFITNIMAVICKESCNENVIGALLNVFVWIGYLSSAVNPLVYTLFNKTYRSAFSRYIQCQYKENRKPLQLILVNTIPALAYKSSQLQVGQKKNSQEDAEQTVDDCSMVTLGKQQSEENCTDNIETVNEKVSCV

SMILES | melting point | Ki [1] [nM]
O=C(NCc1ccc2ccn(C3CCN(CCc4ccc(F)cc4)CC3)c2c1)n1ccnc1 (as salt: oxalate) [Example 368, 1-[1-(4-fluorophenethyl)piperidin-4-yl]-6-imidazocarbonylaminomethylindole] | 156 to 157 °C | 
O=C(CF)NCc1ccc2ccn(C3CCN(CCc4ccccc4F)CC3)c2c1 (as salt: oxalate) [Example 381, 1-[1-(2-fluorophenethyl)piperidin-4-yl]-6-fluoroacetamidomethylindole] | 168 to 169 °C | 
COc1ccc2c(c1)N(C1CCN(CCc3ccc(F)cc3)CC1)C(C)(C)C2 (as salt: oxalate) [Example 396, 2,2-Dimethyl-1-[1-(4-fluorophenethyl)piperidin-4-yl]-6-methoxyindoline] | 228 °C (dec.) | 
O=[N+]([O-])c1ccc(CCN2CCC(N3CCc4ccccc43)CC2)cc1 [Example 29, 1-[1-(4-nitrophenethyl)piperidin-4-yl]indoline] | 95 to 97 °C | 36.5
CCS(=O)(=O)Nc1ccc2ccn(C3CCN(CCc4ccc(F)cc4)CC3)c2c1 [Example 335, 1-[1-(4-fluorophenethyl)piperidin-4-yl]-6-(N-methylmethanesulfonylamino)indole] | 192 to 194 °C | 
NCc1ccc2ccn(C3CCN(CCc4ccccc4F)CC3)c2c1 [Example 348, 1-[1-(2-fluorophenethyl)piperidin-4-yl]-6-aminomethylindole] | 86 to 87 °C | 

Results, then the molecule that gave them:

melting point | Ki [1] [nM] | SMILES
195 to 196 °C |  | CNCc1ccc2ccn(C3CCN(CCc4ccc(F)cc4)CC3)c2c1 (as salt: oxalate) [Example 361, 1-[1-(4-fluorophenethyl)piperidin-4-yl]-6-N-methylaminomethylindole]
112 to 113 °C |  | CN(C)CC(=O)NCc1ccc2ccn(C3CCN(CCc4ccc(F)cc4)CC3)c2c1 (as salt: oxalate) [Example 375, 1-[1-(4-fluorophenethyl)piperidin-4-yl]-6-(N,N-dimethylaminoacetamido)methylindole]
113 to 114 °C |  | O=C(CN1CCCCC1)NCc1ccc2ccn(C3CCN(CCc4ccc(F)cc4)CC3)c2c1 (as salt: oxalate) [Example 376, 1-[1-(4-fluorophenethyl)piperidin-4-yl]-6-[(piperidin-1-yl)acetamido]methylindole]
104 to 105 °C |  | CN(C)CCC(=O)NCc1ccc2ccn(C3CCN(CCc4ccc(F)cc4)CC3)c2c1 (as salt: oxalate) [Example 378, 1-[1-(4-fluorophenethyl)piperidin-4-yl]-6-(3-N,N-dimethylaminopropionyl)aminomethylindole]
108 to 109 °C |  | O=C(CCN1CCCCC1)NCc1ccc2ccn(C3CCN(CCc4ccc(F)cc4)CC3)c2c1 (as salt: oxalate) [Example 379, 1-[1-(4-fluorophenethyl)piperidin-4-yl]-6-[3-(piperidin-1-yl)propionylamino]methylindole]
